The target in one assay is T1, FtsZ1-2 (Physcomitrium patens, UniProt A9SRP3).
T1 construct: gene LOC112295762; lacks N-terminal transit peptide (86 aa, TargetP-2.0); N-terminal His6-SUMO tag cleaved with Ulp1; codon-optimised, expressed in E. coli NiCo; start 87 follows from the removed 86 aa
As to the kind of experiment: malachite green phosphate release GTPase assay. The class given is biochemical. Particulars: 1 mM GTP, 7.5 µM protein, 37.5 mM glycine pH 10, 100 mM KCl, 5 mM MgCl2, 5% glycerol, 25 °C, 10 min.

The target in a further assay is T2, FtsZ2-1 (Physcomitrium patens, UniProt O49922).
T2 construct: gene ftsZ 2-1; lacks N-terminal transit peptide (42 aa, TargetP-2.0); N-terminal His6-SUMO tag cleaved with Ulp1; codon-optimised, expressed in E. coli NiCo; start 43 follows from the removed 42 aa
Description: malachite green phosphate release GTPase assay. The class given is biochemical. Particulars: 1 mM GTP, 7.5 µM protein, 37.5 mM glycine pH 10, 100 mM KCl, 5 mM MgCl2, 5% glycerol, 25 °C, 10 min.

This note sets out measurements from paper PMC11760385, “Differential GTP-dependent in-vitro polymerization of recombinant Physcomitrella FtsZ proteins” (Scientific Reports, 2025).

Structures are written as SMILES.

T2 sequence (O49922 entry or part of it): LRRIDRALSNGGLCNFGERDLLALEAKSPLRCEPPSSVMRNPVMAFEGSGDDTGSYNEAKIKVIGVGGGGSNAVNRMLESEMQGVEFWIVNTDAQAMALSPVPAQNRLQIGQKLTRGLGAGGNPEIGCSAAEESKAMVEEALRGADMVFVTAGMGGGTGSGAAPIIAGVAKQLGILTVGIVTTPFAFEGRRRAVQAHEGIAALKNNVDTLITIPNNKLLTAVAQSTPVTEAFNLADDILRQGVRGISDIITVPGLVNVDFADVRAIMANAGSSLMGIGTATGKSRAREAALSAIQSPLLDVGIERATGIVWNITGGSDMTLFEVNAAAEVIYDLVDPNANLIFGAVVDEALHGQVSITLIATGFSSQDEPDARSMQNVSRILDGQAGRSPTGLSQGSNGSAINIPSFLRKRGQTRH
T1 sequence (A9SRP3 entry or part of it): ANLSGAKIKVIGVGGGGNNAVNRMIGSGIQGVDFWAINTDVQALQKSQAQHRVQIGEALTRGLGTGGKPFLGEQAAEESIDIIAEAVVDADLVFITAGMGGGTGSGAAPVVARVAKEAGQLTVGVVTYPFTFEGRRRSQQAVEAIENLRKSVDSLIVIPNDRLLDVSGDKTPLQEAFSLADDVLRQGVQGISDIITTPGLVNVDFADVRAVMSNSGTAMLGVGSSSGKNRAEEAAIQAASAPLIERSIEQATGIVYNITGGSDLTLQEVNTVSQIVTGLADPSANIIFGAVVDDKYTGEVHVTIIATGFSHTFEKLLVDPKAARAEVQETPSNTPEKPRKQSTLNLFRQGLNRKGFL

Consider `Nc1nc2c(ncn2[C@@H]2O[C@H](COP(=O)(O)OP(=O)(O)OP(=O)(O)O)[C@@H](O)[C@H]2O)c(=O)[nH]1` [GTP], for which the “malachite green phosphate release GTPase assay” value at FtsZ1-2 and at FtsZ2-1 was “Both FtsZ proteins exhibited low but significant GTPase activities” each time.
